For 36 molecules, Ki results are on record in patent US20090099158A1, “TETRAHYDROISOQUINOLINE COMPOUNDS AS MODULATORS OF THE HISTAMINE H3 RECEPTOR” (priority 2007, published 2009).

As a reminder, the Ki is the equilibrium dissociation constant of an inhibitor or competing ligand from its target.

T1 sequence (Q9Y5N1 whole entry): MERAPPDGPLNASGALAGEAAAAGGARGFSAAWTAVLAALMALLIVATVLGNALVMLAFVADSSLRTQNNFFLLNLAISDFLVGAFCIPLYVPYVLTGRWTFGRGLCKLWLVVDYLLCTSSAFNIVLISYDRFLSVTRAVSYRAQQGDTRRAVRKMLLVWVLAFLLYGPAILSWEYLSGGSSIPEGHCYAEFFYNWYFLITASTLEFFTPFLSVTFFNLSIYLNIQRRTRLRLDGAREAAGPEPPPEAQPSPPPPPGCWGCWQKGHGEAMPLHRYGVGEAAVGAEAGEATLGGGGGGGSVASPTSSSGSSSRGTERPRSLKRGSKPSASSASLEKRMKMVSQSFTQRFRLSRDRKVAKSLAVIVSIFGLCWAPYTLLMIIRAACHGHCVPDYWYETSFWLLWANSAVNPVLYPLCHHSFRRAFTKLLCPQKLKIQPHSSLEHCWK

The assay concerns the target T1, cloned human H3 receptors (Homo sapiens, UniProt Q9Y5N1).
T1 construct: expressed in transfected cells; host or cells: SK-N-MC cells
Description: H3 Receptor Binding (Human). The settings on record: cloned human H3 receptors stably expressed in SK-N-MC cells; average of the results obtained. The protocol: Binding of compounds to the cloned human H3 receptors, stably expressed in SK-N-MC cells, was performed as described by Barbier, A. J. et al. (Br. J. Pharmacol. 2004, 143(5), 649-661). Data for compounds tested in this assay are presented in Table 1 as an average of the results obtained.
As to `CC(C)N1CCCN(C(=O)c2ccc3c(c2)CCN(C(=O)OC(C)(C)C)C3)CC1` [Example 1, 6-(4-Isopropyl-[1,4]diazepane-1-carbonyl)-3,4-dihydro-1H-isoquinoline-2-carboxylic acid tert-butyl ester], affinity was put at a Ki of 8 nM. To `CC(C)(C)OC(=O)N1CCc2cc(C(=O)N3CCN(C4CCCC4)CC3)ccc2C1` [Example 2, 6-(4-Cyclopentyl-piperazine-1-carbonyl)-3,4-dihydro-1H-isoquinoline-2-carboxylic acid tert-butyl ester] belongs 230 nM.

`CC(C)(C)OC(=O)N1CCc2cc(C(=O)N3CCN(C4CCCCC4)CC3)ccc2C1` [Example 3, 6-(4-Cyclohexyl-piperazine-1-carbonyl)-3,4-dihydro-1H-isoquinoline-2-carboxylic acid tert-butyl ester]: affinity was put at a Ki of 165 nM. Next, `CC(C)(C)OC(=O)N1CCc2cc(C(=O)N3CCN4CCCCC4C3)ccc2C1` (stereo not drawn) [Example 4, 6-(Octahydro-pyrido[1,2-a]pyrazine-2-carbonyl)-3,4-dihydro-1H-isoquinoline-2-carboxylic acid tert-butyl ester]: 28 nM. Consider `O=C(c1ccc2c(c1)CCNC2)N1CCCCC1` [Example 6, Piperidin-1-yl-(1,2,3,4-tetrahydro-isoquinolin-6-yl)-methanone], for which affinity was put at a Ki of 3000 nM.

Molecule `O=C(c1ccc2c(c1)CCNC2)N1CCOCC1` [Example 7, Morpholin-4-yl-(1,2,3,4-tetrahydro-isoquinolin-6-yl)-methanone] yielded a Ki of 4000 nM. With `O=C(c1ccc2c(c1)CCNC2)N1CCN(C2CCCC2)CC1` [Example 8, (4-Cyclopentyl-piperazin-1-yl)-(1,2,3,4-tetrahydro-isoquinolin-6-yl)-methanone], the Ki came out at 11 nM. The molecule `O=C(c1ccc2c(c1)CCNC2)N1CCN(C2CCCCC2)CC1` [Example 9, (4-Cyclohexyl-piperazin-1-yl)-(1,2,3,4-tetrahydro-isoquinolin-6-yl)-methanone] yielded a Ki of 14 nM. Regarding `O=C(c1ccc2c(c1)CCNC2)N1CCN2CCCCC2C1` (stereo not drawn) [Example 10, (Octahydro-pyrido[1,2-a]pyrazin-2-yl)-(1,2,3,4-tetrahydro-isoquinolin-6-yl)-methanone], the affinity corresponds to a Ki of 16 nM. This Ki and that of the molecule before are within 1.5-fold of each other.

For `O=C(c1ccc2c(c1)CCN(Cc1ccccc1)C2)N1CCCCC1` [Example 12, (2-Benzyl-1,2,3,4-tetrahydro-isoquinolin-6-yl)-piperidin-1-yl-methanone], affinity was put at a Ki of 7000 nM. Take `O=C(c1ccc2c(c1)CCN(Cc1ccccc1)C2)N1CCOCC1` [Example 13, (2-Benzyl-1,2,3,4-tetrahydro-isoquinolin-6-yl)-morpholin-4-yl-methanone]: the Ki is > 10000 nM. On to `O=C(c1ccc2c(c1)CCN(Cc1ccc(C(F)(F)F)cc1)C2)N1CCN(C2CCC2)CC1` [Example 14, (4-Cyclobutyl-piperazin-1-yl)-[2-(4-trifluoromethyl-benzyl)-1,2,3,4-tetrahydro-isoquinolin-6-yl]-methanone], for which the Ki is 20 nM. The molecule `O=C(c1ccc2c(c1)CCN(Cc1ccc(Cl)c(Cl)c1)C2)N1CCN(C2CCC2)CC1` [Example 16, (4-Cyclobutyl-piperazin-1-yl)-[2-(3,4-dichloro-benzyl)-1,2,3,4-tetrahydro-isoquinolin-6-yl]-methanone] showed a Ki of 18 nM.

The molecule `O=C(c1ccc2c(c1)CCN(Cc1ccc(Cl)cc1)C2)N1CCN(C2CCC2)CC1` [Example 17, [2-(4-Chloro-benzyl)-1,2,3,4-tetrahydro-isoquinolin-6-yl]-(4-cyclobutyl-piperazin-1-yl)-methanone] gave a Ki of 15 nM. The Ki values of the last two molecules are within 1.5-fold of each other. Consider `CC(C)N1CCN(C(=O)c2ccc3c(c2)CCN(Cc2ccc(Cl)c(Cl)c2)C3)CC1` [Example 19, [2-(3,4-Dichloro-benzyl)-1,2,3,4-tetrahydro-isoquinolin-6-yl]-(4-isopropyl-piperazin-1-yl)-methanone], for which affinity was put at a Ki of 29 nM. Compared with the last molecule, the Ki is about 1.9-fold higher. Molecule `CC(C)N1CCN(C(=O)c2ccc3c(c2)CCN(Cc2ccc(C(F)(F)F)cc2)C3)CC1` [Example 20, (4-Isopropyl-piperazin-1-yl)-[2-(4-trifluoromethyl-benzyl)-1,2,3,4-tetrahydro-isoquinolin-6-yl]-methanone] came in with a Ki of 19 nM. This Ki is about 1.5-fold lower than that of the molecule before.

`CC(C)N1CCN(C(=O)c2ccc3c(c2)CCN(Cc2ccccc2)C3)CC1` [Example 21, (2-Benzyl-1,2,34-tetrahydro-isoquinolin-6-yl)-(4-isopropyl-piperazin-1-yl)-methanone] showed an inhibitory constant (Ki) of 28 nM.

`O=C(c1ccc2c(c1)CCN(Cc1ccc(C(F)(F)F)cc1)C2)N1CCN(C2CC2)CC1` [Example 23, (4-Cyclopropyl-piperazin-1-yl)-[2-(4-trifluoromethyl-benzyl)-1,2,3,4-tetrahydro-isoquinolin-6-yl]-methanone] returned a Ki of 114 nM. For `O=C(c1ccc2c(c1)CCN(Cc1ccc(Cl)cc1)C2)N1CCN(C2CC2)CC1` [Example 24, [2-(4-Chloro-benzyl)-1,2,3,4-tetrahydro-isoquinolin-6-yl]-(4-cyclopropyl-piperazin-1-yl)-methanone], the Ki came out at 75 nM.

As for `N#Cc1ccc(CN2CCc3cc(C(=O)N4CCN(C5CCC5)CC4)ccc3C2)cc1` [Example 25, 4-[6-(4-Cyclobutyl-piperazine-1-carbonyl)-3,4-dihydro-1H-isoquinolin-2-ylmethyl]-benzonitrile], the Ki stood at 15 nM. This Ki lies about 5-fold lower than the previous one. As to `CC(C)N1CCN(C(=O)c2ccc3c(c2)CCN(C(=O)c2ccccc2)C3)CC1` [Example 28, (2-Benzoyl-1,2,3,4-tetrahydro-isoquinolin-6-yl)-(4-isopropyl-piperazin-1-yl)-methanone], the affinity corresponds to a Ki of 16 nM. `CC(=O)N1CCc2cc(C(=O)N3CCN(C(C)C)CC3)ccc2C1` [Example 29, 1-[6-(4-Isopropyl-piperazine-1-carbonyl)-3,4-dihydro-1H-isoquinolin-2-yl]-ethanone] had a Ki of 80 nM. As to `CC(=O)N1CCc2cc(C(=O)N3CCN(C4CCC4)CC3)ccc2C1` [Example 30, 1-[6-(4-Cyclobutyl-piperazine-1-carbonyl)-3,4-dihydro-1H-isoquinolin-2-yl]-ethanone], the affinity, expressed as Ki, was 36 nM. This Ki is about 2.2-fold lower than that of the molecule before.

`O=C(c1ccc2c(c1)CCN(C(=O)C1CCC1)C2)N1CCN(C2CCC2)CC1` [Example 31, Cyclobutyl-[6-(4-cyclobutyl-piperazine-1-carbonyl)-3,4-dihydro-1H-isoquinolin-2-yl]-methanone] showed a Ki of 87 nM. `O=C(c1ccc2c(c1)CCN(C(=O)C1CC1)C2)N1CCN(C2CCC2)CC1` [Example 34, [6-(4-Cyclobutyl-piperazine-1-carbonyl)-3,4-dihydro-1H-isoquinolin-2-yl]-cyclopropyl-methanone] showed a Ki of 14 nM. Molecule `O=C(c1ccc2c(c1)CN(C(=O)C1CCCC1)CC2)N1CCCN(C2CCC2)CC1` [Example 37, [7-(4-Cyclobutyl-[1,4]diazepane-1-carbonyl)-3,4-dihydro-1H-isoquinolin-2-yl]-cyclopentyl-methanone] displayed a Ki of 1 nM. Molecule `O=C(c1ccc2c(c1)CN(C(=O)C1CCCCC1)CC2)N1CCCN(C2CCC2)CC1` [Example 38, [7-(4-Cyclobutyl-[1,4]diazepane-1-carbonyl)-3,4-dihydro-1H-isoquinolin-2-yl]-cyclohexyl-methanone] returned a Ki of 1 nM. That is a single-digit nanomolar value. Regarding `CC(C)(C)C(=O)N1CCc2cc(C(=O)N3CCN(C4CCC4)CC3)ccc2C1` [Example 41, 1-[6-(4-Cyclobutyl-piperazine-1-carbonyl)-3,4-dihydro-1H-isoquinolin-2-yl]-2,2-dimethyl-propan-1-one], the affinity corresponds to a Ki of 15 nM.

As for `O=C(c1ccc2c(c1)CCN(C(=O)c1ccccc1Cl)C2)N1CCN(C2CCC2)CC1` [Example 42, (2-Chloro-phenyl)-[6-(4-cyclobutyl-piperazine-1-carbonyl)-3,4-dihydro-1H-isoquinolin-2-yl]-methanone], the Ki was 10 nM. The molecule `O=C(CC1CCCC1)N1CCc2cc(C(=O)N3CCN(C4CCC4)CC3)ccc2C1` [Example 43, 1-[6-(4-Cyclobutyl-piperazine-1-carbonyl)-3,4-dihydro-1H-isoquinolin-2-yl]-2-cyclopentyl-ethanone] showed a Ki of 20 nM. In turn, `O=C(c1ccc2c(c1)CCN(C(=O)c1ccoc1)C2)N1CCN(C2CCC2)CC1` [Example 44, [6-(4-Cyclobutyl-piperazine-1-carbonyl)-3,4-dihydro-1H-isoquinolin-2-yl]-furan-3-yl-methanone] displayed a Ki of 19 nM. To `CC(C)(C)C(=O)N1CCc2cc(C(=O)N3CCC[C@H]3CN3CCCC3)ccc2C1` [Example 47, (S)-2,2-Dimethyl-1-[6-(2-pyrrolidin-1-ylmethyl-pyrrolidine-1-carbonyl)-3,4-dihydro-1H-isoquinolin-2-yl]-propan-1-one] belongs 16 nM. `O=C(c1ccccc1)N1CCc2cc(C(=O)N3CCC[C@H]3CN3CCCC3)ccc2C1` [Example 48, (S)-Phenyl-[6-(2-pyrrolidin-1-ylmethyl-pyrrolidine-1-carbonyl)-3,4-dihydro-1H-isoquinolin-2-yl]-methanone] showed a Ki of 18 nM.

On to `CC(C)(C)c1ccc(C(=O)N2CCc3cc(C(=O)N4CCC[C@H]4CN4CCCC4)ccc3C2)cc1` [Example 49, (S)-(4-tert-Butyl-phenyl)-[6-(2-pyrrolidin-1-ylmethyl-pyrrolidine-1-carbonyl)-3,4-dihydro-1H-isoquinolin-2-yl]-methanone], for which the inhibition constant (Ki) is 46 nM. As for `O=C(c1ccccc1Cl)N1CCc2cc(C(=O)N3CCC[C@H]3CN3CCCC3)ccc2C1` [Example 50, (S)-(2-Chloro-phenyl)-[6-(2-pyrrolidin-1-ylmethyl-pyrrolidine-1-carbonyl)-3,4-dihydro-1H-isoquinolin-2-yl]-methanone], affinity was put at a Ki of 12 nM. Against the preceding molecule, the Ki is about 3.8-fold lower. Turning to `O=C(c1cccc(Cl)c1)N1CCc2cc(C(=O)N3CCC[C@H]3CN3CCCC3)ccc2C1` [Example 51, (S)-(3-Chloro-phenyl)-[6-(2-pyrrolidin-1-ylmethyl-pyrrolidine-1-carbonyl)-3,4-dihydro-1H-isoquinolin-2-yl]-methanone], affinity was put at a Ki of 14 nM.
